Data taken from patent US12544356B2, “Combination of a chromene compound and a second active agent” (EUCLISES PHARMACEUTICALS, INC., priority 2016, dated 2026).

Tests used:
[1] = test system: PGE-2; test: Tumoral PGE-2 in HT-29 tumors (Example 5); type: in vivo, CB17SCID mice; conditions: HT-29 tumor, day 24
Protocol: HT-29 cells were prepared and implanted by standard methods using the same procedure as Example 1.
42 CB17SCID mice were implanted with 2.5×10^6 HT-29 cells.
Mouse weight and tumor volume measurements were taken on days 0, 3, 6, 9, 12, 15, 18, 21, and 22 following randomization. After 22 days dosing, the blood from each animal was collected at 2 hours and 6 hours post dose.

[2] = test system: HT-29 xenograft murine colon carcinoma model; test: HT-29 xenograft tumor growth, Compound A01 with erlotinib (Example 1); type: in vivo, CB17SCID male mice
Protocol: HT-29 cells were cultured in medium for one week. Following digestion cells were centrifuged for 3-5 minutes at 800-1500 rpm. Cells were washed with PBS and centrifuged again under the same condition. Cells were then suspended in PBS to a final concentration of […]. 200 μL of the HT-29 cell suspension were subcutaneously injected into the mice left forelimb axillary (2.5×10^6 HT-29 cells per mouse).
(§1) 48 CB17SCID male mice were implanted with 2.5×10^6 HT29 cells. Growth of the tumor was calculated for each animal using a caliper and the equation: V=π×ab^2/6.
(§2) Mouse weight and tumor volume measurements were taken on days 0, 3, 6, 9, 12, 15, 18, 21, and 22 following randomization.

[3] = Intratumoral concentration of Compound A01 and erlotinib (Example 1); type: in vivo, CB17SCID male mice; conditions: for Intratumoral concentration of Compound A01 (mean ± SD): HT-29 tumor, day 24
Protocol: as §1, §2

[4] = test system: intratumoral immune cells (CT26 tumors); test: Intratumoral immune response by flow cytometry (Example 4); type: in vivo, Female Envigo BALB/c (BALB/cAnNHsd) mice
Protocol: CT26 murine colon carcinoma cells were prepared as in Example 2. Female Envigo BALB/c (BALB/cAnNHsd) were inoculated with 5×10^5 CT26 cells suspended in PBS (200 μL) subcutaneously high in the axilla (just under the fore limb). […] The antibodies were administered via i.p. injection on days 3, 6, 9, 12, and 16 following inoculation. Compound A01 was given per oral daily. The mice were euthanized two hours following final dose on Day 16 and samples were prepared for testing.
Following euthanization, tumors were removed and processed to recover live cells. Red blood cells were removed. The cells were stained for surface markers and, where applicable, permeabilized for intracellular staining. The cells were washed and suspended in flow cytometry staining buffer and analyzed via flow cytometry.
The treatment had minimal effect on the relative number of Tregs (CD25^+Foxp3^+) and MDSCs (CD11b^+Ly6G^+) (as a percentage of total CD45^+ cells). […] FIG. 3 correlates CD8^+ cell percentages to tumor regression.

[5] = test system: prostaglandin E2 (PGE2); test: CT26 tumoral PGE-2 (Example 6); type: in vivo, Female Harlan Balb/c mice (BALB/cAnNHsd)
Protocol: CT26 murine colon carcinoma cells were prepared as in Example 2. Female Harlan Balb/c mice (BALB/cAnNHsd) were inoculated with 5×10^5 CT26 cells suspended in PBS (200 μL) subcutaneously high in the axilla (just under the fore limb). All mice were sorted into study groups based on caliper measurement estimation of tumor burden on Day 8 when the mean tumor burden for all animals was approximately 79 mm^3 (range of group means, 75-83 mm^3).

[6] = Plasma concentration of Compound A01 and erlotinib (Example 1); type: in vivo, CB17SCID male mice; conditions: for concentration at 2 h / concentration at 6 h: male, CB17SCID, mouse, plasma; for concentration at 2 h: 2 hours post dosing; for concentration at 6 h: 6 hours post dosing
Protocol: as §1, §2

[7] = of total CD8+CD4− T cells, Day 16, doses 10 mg/kg
[8] = percentage of total CD45+ cells, Day 16, doses 10 mg/kg

[2H]C([2H])([2H])c1cc(Br)cc2c1O[C@H](C(F)(F)F)C(C(=O)O)=C2 [Compound A01, (S)-6-bromo-8-trideuteromethyl-2-(trifluoromethyl)-2H-chromene-3-carboxylic acid]
Mean PGE-2 (tumoral) ([1]; 0.1 mg/kg): 203.9 ± 157.9 ng/g | Mean PGE-2 (tumoral) ([1]; 0.3 mg/kg): 237.3 ± 119.8 ng/g | Mean PGE-2 (tumoral) ([1]; 1 mg/kg): 90.7 ± 105.1 ng/g | Mean PGE-2 (tumoral) ([1]; 3 mg/kg): 94.3 ± 78.4 ng/g | Mean PGE-2 (tumoral) ([1]; 10 mg/kg): 45.5 ± 73.4 ng/g | suppression of tumor growth compared to vehicle ([2]; 10 mg/kg Compound A01 alone): 51% | Tumor Volume ([2]; Day 0, A01 1 mg/kg oral daily): 71.8 mm^3 | Tumor Volume ([2]; Day 0, A01 10 mg/kg oral daily): 70.1 mm^3 | Tumor Volume ([2]; Day 3, A01 1 mg/kg oral daily): 143.8 mm^3 | Tumor Volume ([2]; Day 3, A01 10 mg/kg oral daily): 145.2 mm^3 | Tumor Volume ([2]; Day 6, A01 1 mg/kg oral daily): 194.2 mm^3 | Tumor Volume ([2]; Day 6, A01 10 mg/kg oral daily): 186.9 mm^3 | Tumor Volume ([2]; Day 9, A01 1 mg/kg oral daily): 301.1 mm^3 | Tumor Volume ([2]; Day 9, A01 10 mg/kg oral daily): 235.1 mm^3 | Tumor Volume ([2]; Day 12, A01 1 mg/kg oral daily): 344.8 mm^3 | Tumor Volume ([2]; Day 12, A01 10 mg/kg oral daily): 292.1 mm^3 | Tumor Volume ([2]; Day 15, A01 1 mg/kg oral daily): 459.4 mm^3 | Tumor Volume ([2]; Day 15, A01 10 mg/kg oral daily): 309.7 mm^3 | Tumor Volume ([2]; Day 18, A01 1 mg/kg oral daily): 820.6 mm^3 | Tumor Volume ([2]; Day 18, A01 10 mg/kg oral daily): 497.5 mm^3 | Tumor Volume ([2]; Day 21, A01 1 mg/kg oral daily): 899.0 mm^3 | Tumor Volume ([2]; Day 21, A01 10 mg/kg oral daily): 592.1 mm^3 | Tumor Volume ([2]; Day 22, A01 1 mg/kg oral daily): 921.1 mm^3 | Tumor Volume ([2]; Day 22, A01 10 mg/kg oral daily): 612.1 mm^3 | slowing of tumor growth, comparison of therapies ([2]; HT-29 xenograft, compared to vehicle and to each therapy alone): superior to 50 mg/kg erlotinib | Intratumoral concentration of Compound A01 (mean ± SD) ([3]; A01 1 mg/kg): 1478.5 ± 652.1 µg/g | Intratumoral concentration of Compound A01 (mean ± SD) ([3]; A01 10 mg/kg): 9720 ± 2758.7 µg/g | increase in intratumor level of Compound A01 on addition of erlotinib ([3]; with erlotinib vs Compound A01 in the absence of erlotinib): 1.5 fold | Ki67+ CD8+ T cells [4, 7]: 13.75% | PD-1+ CD8+ T cells [4, 7]: 84.36% | CD4+ CD8− intratumoral T cells [4, 8]: 1.01% | CD8+ CD4− intratumoral T cells [4, 8]: 6.32% | MDSCs (CD11b+Ly6G+) [4, 8]: 12.09% | Tregs (CD25+Foxp3+) [4, 8]: 2.29% | level of Ki67+CD8+ T cells (of total CD8+CD4− T cells), in words ([4]; summary of Table 12): reduced | level of PD-1+CD8+ T cells (of total CD8+CD4− T cells), in words ([4]; summary of Table 12): reduced | percentage of intratumoral CD4+CD8− T cells (of total CD45+ cells), in words ([4]; summary of Table 12): increased | percentage of intratumoral CD8+CD4− T cells (of total CD45+ cells), in words ([4]; summary of Table 12): increased | Mean PGE-2 Concentration (CT26 tumoral) ([5]; 0.3 mg/kg (Group 6)): 670 ng/g | Mean PGE-2 Concentration (CT26 tumoral) ([5]; 1 mg/kg (Group 5)): 278 ng/g | Mean PGE-2 Concentration (CT26 tumoral) ([5]; 30 mg/kg (Group 2)): 150 ng/g | effect of oral dosing of erlotinib on plasma concentration of Compound A01 ([6]; 2 and 6 hours post dosing): influenced | concentration at 2 h ([6]; A01 1 mg/kg oral): 3610 ± 1350 ng/mL | concentration at 2 h ([6]; A01 10 mg/kg oral): 28400 ± 6020 ng/mL | concentration at 6 h ([6]; A01 1 mg/kg oral): 2250 ± 529 ng/mL | concentration at 6 h ([6]; A01 10 mg/kg oral): 19100 ± 5170 ng/mL
